Assay results reported in patent US20060293307A1, “Oxazolidinone derivatives as antimicrobials” (priority 2002, published 2006).
In brackets after ≈: the same amount, converted by molar mass.

What was measured:
Assay in all cases: MIC, agar incorporation method
S. aureus SG 511 = format: cell-based, Staphylococcus aureus; details: S. No. 3, S. aureus SG 511
S. aureus (MRSA) 15187 = format: cell-based, Staphylococcus aureus; details: S. No. 4, S. aureus (MRSA) 15187
S. aureus (MRSA) 21299 = format: cell-based, Staphylococcus aureus; details: S. No. 5, S. aureus (MRSA) 21299
[1] = test system: S. aureus (MRSA 33) Cipro R; format: cell-based, Staphylococcus aureus; details: S. No. 7, S. aureus (MRSA 33) Cipro R
[2] = test system: S. epidermidis (MRSE) 23760; format: cell-based, Staphylococcus epidermidis; details: S. No. 11, S. epidermidis (MRSE) 23760
E. faecalis 21777 = format: cell-based; details: S. No. 18, E. faecalis 21777
E. faecalis SP 346 (VRE) = format: cell-based; details: S. No. 20, E. faecalis SP 346 (VRE)
E. faecium 398(VRE) = format: cell-based, Enterococcus faecium; details: S. No. 22, E. faecium 398(VRE)
Salmonella 205 = format: cell-based; details: S. No. 26, Salmonella 205
Protocol: The compounds of the invention display antibacterial activity when tested by the agar incorporation method. The following minimum inhibitory concentrations (μg/ml) were obtained for representative compounds of the invention which are given below in the following tables.
Briefly, the compounds were dissolved in DMSO and doubling dilution of the compounds were incorporated into Meer Hilton agar before solidification. Inoculum was prepared by suspending 4 to 5 colonies into 5 ml of normal saline solution and adjusting the turbidity to 0.5 Macfarland turbidity standard tables (1.5×10^8 CFU/ml), after appropriate dilutions, 10^4 CFU/spot was transfered into the surface of dried plate and incubated for 18 hours (24 hours for MRSN studies). The concentration showing no growth of the inoculated culture was recorded as the MIC. Appropriate ATCC standard strains were simultaneously tested and result recorded only when the MIC's against standard antibiotics were within the acceptable range.

E. durans 581 = format: cell-based; details: S. No. 24, E. durans 581
K. oxytoca 49131 = format: cell-based; details: S. No. 27, K. oxytoca 49131
P. aeruginosa ATCC 27853 = format: cell-based; details: S. No. 28, P. aeruginosa ATCC 27853
[3] = test system: Serratia marcescens 12999; format: cell-based; details: S. No. 29, Serratia marcescens 12999
S. pneumoniae AB-2 = format: cell-based, Streptococcus pneumoniae; details: S. No. 31, S. pneumoniae AB-2
S. pneumoniae AB4 = format: cell-based, Streptococcus pneumoniae; details: S. No. 33, S. pneumoniae AB4
S. pneumoniae AB 10 = format: cell-based, Streptococcus pneumoniae; details: S. No. 35, S. pneumoniae AB 10
S. pneumoniae 217 = format: cell-based, Streptococcus pneumoniae; details: S. No. 38, S. pneumoniae 217
S. pneumoniae AB 16 = format: cell-based, Streptococcus pneumoniae; details: S. No. 39, S. pneumoniae AB 16
S. pneumoniae AB 21 = format: cell-based, Streptococcus pneumoniae; details: S. No. 41, S. pneumoniae AB 21
S. pneumoniae AB 23 = format: cell-based, Streptococcus pneumoniae; details: S. No. 43, S. pneumoniae AB 23
S. pneumoniae AB 25 = format: cell-based, Streptococcus pneumoniae; details: S. No. 45, S. pneumoniae AB 25
S. pneumoniae AB 29 = format: cell-based, Streptococcus pneumoniae; details: S. No. 46, S. pneumoniae AB 29
S. pneumoniae AB 30 = format: cell-based, Streptococcus pneumoniae; details: S. No. 47, S. pneumoniae AB 30
S. pneumoniae ATCC 49619 = format: cell-based, Streptococcus pneumoniae; details: S. No. 48, S. pneumoniae ATCC 49619
S. pneumoniae AB 34 = format: cell-based, Streptococcus pneumoniae; details: S. No. 49, S. pneumoniae AB 34
S. pyogenes 19615 = format: cell-based, Streptococcus pyogenes; details: S. No. 51, S. pyogenes 19615
S. pyogenes 20361 = format: cell-based, Streptococcus pyogenes; details: S. No. 53, S. pyogenes 20361
S. pneumoniae 1251 = format: cell-based, Streptococcus pneumoniae; details: S. No. 54, S. pneumoniae 1251
S pneumoniae 1294. = format: cell-based, Streptococcus pneumoniae; details: S. No. 55, S pneumoniae 1294.
S. pneumoniae 1256 = format: cell-based, Streptococcus pneumoniae; details: S. No. 56, S. pneumoniae 1256
S. pneumoniae 1275 = format: cell-based, Streptococcus pneumoniae; details: S. No. 57, S. pneumoniae 1275
Moraxella cata. M2 = format: cell-based; details: S. No. 59, Moraxella cata. M2

CC(=O)NC[C@H]1CN(c2ccc(N3CCN(c4ccc([N+](=O)[O-])s4)CC3)cc2)C(=O)O1 [Compound No. 6, (S)—N-[[3-[4-[N-1-(5-nitro-2-thienyl)piperazinyl]-phenyl]-2-oxo-5-oxazolidinyl]-methyl]-acetamide]
MIC (S. aureus SG 511): 2 µg/mL (≈ 4.49 µM) | MIC (S. aureus (MRSA) 15187): 2 µg/mL (≈ 4.49 µM) | MIC (S. aureus (MRSA) 21299): 1 µg/mL (≈ 2.24 µM) | MIC [1]: 1 µg/mL (≈ 2.24 µM) | MIC [2]: 1 µg/mL (≈ 2.24 µM) | MIC (E. faecalis 21777): 1 µg/mL (≈ 2.24 µM) | MIC (E. faecalis SP 346 (VRE)): 1 µg/mL (≈ 2.24 µM) | MIC (E. faecium 398(VRE)): 1 µg/mL (≈ 2.24 µM) | MIC (Salmonella 205): >16 µg/mL | MIC (E. durans 581): 1 µg/mL (≈ 2.24 µM) | MIC (K. oxytoca 49131): >16 µg/mL | MIC (P. aeruginosa ATCC 27853): >16 µg/mL | MIC [3]: >16 µg/mL | MIC (S. pneumoniae AB-2): 0.25 µg/mL (≈ 0.561 µM) | MIC (S. pneumoniae AB4): 0.25 µg/mL (≈ 0.561 µM) | MIC (S. pneumoniae AB 10): 0.25 µg/mL (≈ 0.561 µM) | MIC (S. pneumoniae 217): 0.25 µg/mL (≈ 0.561 µM) | MIC (S. pneumoniae AB 16): 0.5 µg/mL (≈ 1.12 µM) | MIC (S. pneumoniae AB 21): 0.5 µg/mL (≈ 1.12 µM) | MIC (S. pneumoniae AB 23): 0.5 µg/mL (≈ 1.12 µM) | MIC (S. pneumoniae AB 25): 0.5 µg/mL (≈ 1.12 µM) | MIC (S. pneumoniae AB 29): 0.5 µg/mL (≈ 1.12 µM) | MIC (S. pneumoniae AB 30): 0.5 µg/mL (≈ 1.12 µM) | MIC (S. pneumoniae ATCC 49619): 0.5 µg/mL (≈ 1.12 µM) | MIC (S. pneumoniae AB 34): 0.5 µg/mL (≈ 1.12 µM) | MIC (S. pyogenes 19615): 0.5 µg/mL (≈ 1.12 µM) | MIC (S. pyogenes 20361): 0.5 µg/mL (≈ 1.12 µM) | MIC (S. pneumoniae 1251): 0.25 µg/mL (≈ 0.561 µM) | MIC (S pneumoniae 1294.): 0.5 µg/mL (≈ 1.12 µM) | MIC (S. pneumoniae 1256): 0.25 µg/mL (≈ 0.561 µM) | MIC (S. pneumoniae 1275): 0.25 µg/mL (≈ 0.561 µM) | MIC (Moraxella cata. M2): 8 µg/mL (≈ 18 µM)
